Assay results from article PMC11279916, “Application of ^99mTc-Labeled WL12 Peptides as a Tumor PD-L1-Targeted SPECT Imaging Agent: Kit Formulation, Preclinical Evaluation, and Study on the Influence of Coligands” (Pharmaceuticals, 2024).

Target: PD-L1 protein (Homo sapiens, UniProt Q9NZQ7)
Assay: TR-FRET in vitro affinity assay (IC50)
Format: binding
Settings: PD-L1-biotin / PD-1-Eu
Experimental: Fig. S3. HPLC analysis of HYNIC-WL12 (tR = 14.29 min, purity 95.84%).
In Vitro Affinity Assay: Determination of IC50
The affinity of WL12 and HYNIC-WL12 for the PD-L1 protein was determined via a time-resolved fluorescence energy transfer (TR-FRET) assay. In brief, 200 nL of WL12 or HYNIC-WL12 solutions at different concentrations (from 0.5-10000 nM) in 10% ethanol were transferred to 384-well plates on an Echo550 […]
instrument. Then, 5 µL of PD-L1-biotin solution was added, and the plates were centrifuged at 1000 rpm for 30 s and incubated at room temperature. After incubation for 15 min, the mixed solution containing PD-1-Eu and dye-labeled acceptor was added. Then, the plates were centrifuged at 1000 rpm for 30 s and incubated for 90 min at room temperature. Finally, the 665 nm-to-615 nm ratios were read on a microplate reader, and the IC50 values of the two peptides were calculated. […]
For RP-HPLC analysis of [99mTc]Tc-HYNIC-WL12-tricine/M, phase A was water containing 0.1% trifluoroacetic acid (TFA), and phase B was acetonitrile containing 0.1% trifluoroacetic acid (TFA). […] Additionally, the radiochemical purity of [99mTc]Tc-HYNIC-WL12-tricine/M was determined by instant thin layer chromatography on silica gel (iTLC-SG, Agilent, China) using acid-citrate-dextrose solution (ACD solution, pH = 4.5-5.5) as the mobile phase solvent. […]
Effect of HYNIC-WL12 Quantities on the Radiochemical Yield […]

PD-L1 protein, sequence (Q9NZQ7 19-238 limits assumed): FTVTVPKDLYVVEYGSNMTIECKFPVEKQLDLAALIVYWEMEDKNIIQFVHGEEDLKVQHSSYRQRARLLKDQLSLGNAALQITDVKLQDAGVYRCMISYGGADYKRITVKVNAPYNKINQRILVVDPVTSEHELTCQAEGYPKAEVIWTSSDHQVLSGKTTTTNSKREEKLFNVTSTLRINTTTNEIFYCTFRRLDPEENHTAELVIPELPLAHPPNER

For CCCC[C@H]1C(=O)N(C)[C@@H](CCCC)C(=O)N[C@@H](CCCNC(=O)c2ccc(NN)nc2)C(=O)N[C@H](C(=O)NCC(N)=O)CSCC(=O)N[C@@H](Cc2ccc(O)cc2)C(=O)N(C)[C@@H](C)C(=O)N[C@@H](CC(N)=O)C(=O)N2CCC[C@H]2C(=O)N[C@@H](Cc2c[nH]cn2)C(=O)N[C@@H](CC(C)C)C(=O)N2C[C@H](O)C[C@H]2C(=O)N[C@@H](Cc2c[nH]c3ccccc23)C(=O)N[C@@H](CO)C(=O)N[C@@H](Cc2cn(C)c3ccccc23)C(=O)N1C [HYNIC-WL12], the IC50 was 170 nM.
